Literature values in article PMC7395068, “The evolution of strategies to minimise the risk of human drug-induced liver injury (DILI) in drug discovery and development” (Archives of Toxicology, 2020).
Read-outs that look alike come from different tables or passages of the source.

Assays:
[1] = system: primary human hepatocytes, NIH3T3 fibroblasts, BSEP, CYP3A4; conditions: cited from earlier work
[2] = cited from earlier work
[3] = cited from earlier work; remark: listed apart in the source
[4] = In vitro Assay, ref Schadt 2015

COCCCOc1cc(C[C@@H](C[C@H](N)[C@@H](O)C[C@H](C(=O)NCC(C)(C)C(N)=O)C(C)C)C(C)C)ccc1OC [aliskiren]
Cellular toxicity (3T3 cells) [1, 4]: -VE
Combined Assay [1, 4]: -VE
GSH adduct HML [1, 4]: -VE
Hepatocyte cellular toxicity [1, 4]: -VE
MitoTox 3T3 [1, 4]: -VE
TDI CYP3A4 [1, 4]: -VE
hBSEP inhibition [1, 4]: -VE

O=C1CCc2ccc(OCCCCN3CCN(c4cccc(Cl)c4Cl)CC3)cc2N1 [aripiprazole]
DILI +VE (5-8), DILI -VE (-4) ([2]; ref Chen 2016): -VE
DILI severity category ([2]; ref Chen 2016): Ambiguous DILI-concern
Cellular toxicity (3T3 cells) [1]: -VE
Combined Assay [1]: -VE
GSH adduct HML [1]: -VE
Hepatocyte cellular toxicity [1]: -VE
MitoTox 3T3 [1]: -VE
TDI CYP3A4 [1]: -VE
hBSEP inhibition [1]: -VE
In vivo DILI ([3]; ref Schadt 2015): -VE

COC(=O)N[C@H](C(=O)N[C@@H](Cc1ccccc1)[C@@H](O)CN(Cc1ccc(-c2ccccn2)cc1)NC(=O)[C@@H](NC(=O)OC)C(C)(C)C)C(C)(C)C [atazanavir]
DILI +VE (5-8), DILI -VE (-4) ([2]; ref Chen 2016): +VE
DILI severity category ([2]; ref Chen 2016): vLess-DILI-Concern
Cellular toxicity (3T3 cells) [1, 4]: +VE
Combined Assay [1, 4]: +VE
GSH adduct HML [1, 4]: +VE
Hepatocyte cellular toxicity [1, 4]: +VE
MitoTox 3T3 [1, 4]: -VE
TDI CYP3A4 [1, 4]: -VE
hBSEP inhibition [1, 4]: +VE
In vivo DILI ([3]; ref Schadt 2015): +VE

NCC(CC(=O)O)c1ccc(Cl)cc1 (stereo not shown) [baclofen]
DILI +VE (5-8), DILI -VE (-4) ([2]; ref Chen 2016): +VE
DILI severity category ([2]; ref Chen 2016): vLess-DILI-Concern
Cellular toxicity (3T3 cells) [1, 4]: -VE
Combined Assay [1, 4]: -VE
GSH adduct HML [1, 4]: -VE
Hepatocyte cellular toxicity [1, 4]: -VE
MitoTox 3T3 [1, 4]: -VE
TDI CYP3A4 [1, 4]: -VE
hBSEP inhibition [1, 4]: -VE
In vivo DILI ([3]; ref Schadt 2015): -VE

CCCC1O[C@@H]2C[C@H]3[C@@H]4CCC5=CC(=O)C=C[C@]5(C)[C@H]4[C@@H](O)C[C@]3(C)[C@]2(C(=O)CO)O1 (stereo partly shown) [budesonide]
DILI +VE (5-8), DILI -VE (-4) ([2]; ref Chen 2016): -VE
DILI severity category ([2]; ref Chen 2016): vNo-DILI-Concern
Cellular toxicity (3T3 cells) [1, 4]: +VE
Combined Assay [1, 4]: -VE
GSH adduct HML [1, 4]: +VE
Hepatocyte cellular toxicity [1, 4]: +VE
MitoTox 3T3 [1, 4]: -VE
TDI CYP3A4 [1, 4]: -VE
hBSEP inhibition [1, 4]: +VE
In vivo DILI ([3]; […]): -VE
In vivo DILI ([3]; ref Schadt 2015): -VE

CCCC(C)(COC(N)=O)COC(=O)NC(C)C (stereo not shown) [carisoprodol]
DILI +VE (5-8), DILI -VE (-4) ([2]; ref Chen 2016): -VE
DILI severity category ([2]; ref Chen 2016): vNo-DILI-Concern
Cellular toxicity (3T3 cells) [1]: -VE
Combined Assay [1]: -VE
GSH adduct HML [1]: -VE
Hepatocyte cellular toxicity [1]: -VE
MitoTox 3T3 [1]: -VE
TDI CYP3A4 [1]: -VE
hBSEP inhibition [1]: -VE
In vivo DILI ([3]; ref Schadt 2015): -VE

CCCCc1oc2ccc(NS(C)(=O)=O)cc2c1C(=O)c1ccc(OCCCN(CCCC)CCCC)cc1 [dronedaron]
Cellular toxicity (3T3 cells) [1, 4]: +VE
Combined Assay [1, 4]: -VE
GSH adduct HML [1, 4]: -VE
Hepatocyte cellular toxicity [1, 4]: -VE
MitoTox 3T3 [1, 4]: -VE
TDI CYP3A4 [1, 4]: -VE
hBSEP inhibition [1, 4]: -VE
In vivo DILI ([3]; ref Schadt 2015): +VE

CC(C)n1c(/C=C/C(O)CC(O)CC(=O)O)c(-c2ccc(F)cc2)c2ccccc21 (stereo not shown) [fluvastatin]
DILI +VE (5-8), DILI -VE (-4) ([2]; ref Chen 2016): +VE
DILI severity category ([2]; ref Chen 2016): vLess-DILI-Concern
In vivo DILI ([3]; ref O'Brien 2006): -VE
In vivo DILI ([3]; ref Xu 2008): -VE

Nc1nnc(-c2cccc(Cl)c2Cl)c(N)n1 [lamotrigine]
DILI +VE (5-8), DILI -VE (-4) ([2]; ref Chen 2016): +VE
DILI severity category ([2]; ref Chen 2016): vMost-DILI-Concern
In vivo DILI ([3]; […]): +VE

Cc1cccc(CN2CCN(C(c3ccccc3)c3ccc(Cl)cc3)CC2)c1 (stereo not shown) [meclizine]
DILI +VE (5-8), DILI -VE (-4) ([2]; ref Chen 2016): -VE
DILI severity category ([2]; ref Chen 2016): vNo-DILI-Concern
In vivo DILI ([3]; […]): -VE

CCOC(=O)C1(c2ccccc2)CCN(C)CC1 [meperidine]
DILI +VE (5-8), DILI -VE (-4) ([2]; in vivo): -VE
DILI severity category ([2]; in vivo): vNo-DILI-Concern
In vivo DILI ([3]; in vivo): -VE

Cc1cccc(C)c1NC(=O)C1CCCCN1C (stereo not shown) [mepivacaine]
DILI +VE (5-8), DILI -VE (-4) ([2]; ref Chen 2016): -VE
DILI severity category ([2]; ref Chen 2016): vNo-DILI-Concern
In vivo DILI ([3]; […]): -VE

C[C@@H](O)[C@H]1C(=O)N2C(C(=O)O)=C(S[C@@H]3CN[C@H](C(=O)N(C)C)C3)[C@H](C)[C@H]12 [meropenem]
DILI +VE (5-8), DILI -VE (-4) ([2]; ref Chen 2016): +VE
DILI severity category ([2]; ref Chen 2016): vLess-DILI-Concern
In vivo DILI ([3]; […]): +VE

CN[C@@H](C)Cc1ccccc1 [methamphetamine]
DILI +VE (5-8), DILI -VE (-4) ([2]; ref Chen 2016): -VE
DILI severity category ([2]; ref Chen 2016): vNo-DILI-Concern
In vivo DILI ([3]; […]): -VE

COc1ccccc1OCC(O)COC(N)=O (stereo not shown) [methocarbamol]
DILI +VE (5-8), DILI -VE (-4) ([2]; ref Chen 2016): -VE
DILI severity category ([2]; ref Chen 2016): Ambiguous DILI-concern
In vivo DILI ([3]; […]): -VE

C[C@](N)(Cc1ccc(O)cc1)C(=O)O [metyrosine]
DILI +VE (5-8), DILI -VE (-4) ([2]; ref Chen 2016): -VE
DILI severity category ([2]; ref Chen 2016): vNo-DILI-Concern
In vivo DILI ([3]; […]): -VE

COc1ccc(OC)c(C(O)CNC(=O)CN)c1 (stereo not shown) [midodrine]
DILI +VE (5-8), DILI -VE (-4) ([2]; ref Chen 2016): -VE
DILI severity category ([2]; ref Chen 2016): vNo-DILI-Concern
In vivo DILI ([3]; […]): -VE

NC(=O)C[S+]([O-])C(c1ccccc1)c1ccccc1 (stereo not shown) [modafinil]
DILI +VE (5-8), DILI -VE (-4) ([2]; ref Chen 2016): +VE
DILI severity category ([2]; ref Chen 2016): vLess-DILI-Concern
In vivo DILI ([3]; […]): -VE

CC(C)[C@H]1CC[C@H](C(=O)N[C@H](Cc2ccccc2)C(=O)O)CC1 [nateglinide]
DILI +VE (5-8), DILI -VE (-4) ([2]; ref Chen 2016): -VE
DILI severity category ([2]; ref Chen 2016): Ambiguous DILI-concern
In vivo DILI ([3]; […]): -VE
